Assay: xn = mol fraction of the nth substance listed
Details: 102 kPa, Liquid; for speed of sound: Frequency=5 MHz, Single path-length method; for mass density: Vibrating tube method

CCCCC(=O)[O-].C[NH2+]CCO [2-hydroxy-N-methylethanaminium pentanoate] + O
Details	mass density [kg/m3]	speed of sound [m/s]
298.15 K, x1 = 0.0199	1013	1645.3
298.15 K, x1 = 0.05	1026	1705.8
298.15 K, x1 = 0.0988	1027.5	1670.2
298.15 K, x1 = 0.2023	1029.9	1644.9
298.15 K, x1 = 0.3	1028.5	1633.5
298.15 K, x1 = 0.4053	1025.2	1609.2
298.15 K, x1 = 0.5003	1021	1583.7
298.15 K, x1 = 0.5993	1019.1	1571.3
298.15 K, x1 = 0.8061	1013.3	1541.8
298.15 K, x1 = 1	1009.3	1516.3
303.15 K, x1 = 0.0199	1009.6	1644.5
303.15 K, x1 = 0.05	1022.7	1698.6
303.15 K, x1 = 0.0988	1024.2	1659.8
303.15 K, x1 = 0.2023	1026.8	1631.5
303.15 K, x1 = 0.3	1025.4	1618.8
303.15 K, x1 = 0.4053	1022.1	1594.7
303.15 K, x1 = 0.5003	1017.8	1568.6
303.15 K, x1 = 0.5993	1015.9	1556.3
303.15 K, x1 = 0.8061	1010.1	1526.5
303.15 K, x1 = 1	1006	1503.7
308.15 K, x1 = 0.0199	1006.1	1643.7
308.15 K, x1 = 0.05	1019.3	1691.5
308.15 K, x1 = 0.0988	1020.9	1649.5
308.15 K, x1 = 0.2023	1023.7	1618.1
308.15 K, x1 = 0.3	1022.3	1604.2
308.15 K, x1 = 0.4053	1018.9	1580.2
308.15 K, x1 = 0.5003	1014.6	1553.5
308.15 K, x1 = 0.5993	1012.7	1541.4
308.15 K, x1 = 0.8061	1006.9	1511.2
308.15 K, x1 = 1	1002.8	1486.5
313.15 K, x1 = 0.0199	1002.7	1642.9
313.15 K, x1 = 0.05	1015.9	1684.3
313.15 K, x1 = 0.0988	1017.7	1639.1
313.15 K, x1 = 0.2023	1020.7	1604.8
313.15 K, x1 = 0.3	1019.2	1589.6
313.15 K, x1 = 0.4053	1015.8	1565.7
313.15 K, x1 = 0.5003	1011.5	1538.4
313.15 K, x1 = 0.5993	1009.5	1526.5
313.15 K, x1 = 0.8061	1003.6	1495.9
313.15 K, x1 = 1	999.6	1471
318.15 K, x1 = 0.0199	999.3	1642.2
318.15 K, x1 = 0.05	1012.6	1677.2
318.15 K, x1 = 0.0988	1014.4	1628.8
318.15 K, x1 = 0.2023	1017.6	1591.4
318.15 K, x1 = 0.3	1016.1	1575
318.15 K, x1 = 0.4053	1012.7	1551.2
318.15 K, x1 = 0.5003	1008.3	1523.3
318.15 K, x1 = 0.5993	1006.3	1511.5
318.15 K, x1 = 0.8061	1000.4	1480.6
318.15 K, x1 = 1	996.3	1457
323.15 K, x1 = 0.0199	995.8	1641.4
323.15 K, x1 = 0.05	1009.2	1670
323.15 K, x1 = 0.0988	1011.1	1618.5
323.15 K, x1 = 0.2023	1014.6	1578
323.15 K, x1 = 0.3	1012.9	1560.4
323.15 K, x1 = 0.4053	1009.5	1536.7
323.15 K, x1 = 0.5003	1005.1	1508.2
323.15 K, x1 = 0.5993	1003.1	1496.6
323.15 K, x1 = 0.8061	997.2	1465.3
323.15 K, x1 = 1	993.1	1440
328.15 K, x1 = 0.0199	992.4	1640.6
328.15 K, x1 = 0.05	1005.9	1662.8
328.15 K, x1 = 0.0988	1007.8	1608.1
328.15 K, x1 = 0.2023	1011.5	1564.6
328.15 K, x1 = 0.3	1009.8	1545.7
328.15 K, x1 = 0.4053	1006.4	1522.2
328.15 K, x1 = 0.5003	1002	1493.1
328.15 K, x1 = 0.5993	999.9	1481.7
328.15 K, x1 = 0.8061	993.9	1450
328.15 K, x1 = 1	989.9	1424.6
333.15 K, x1 = 0.0199	988.9	1639.8
333.15 K, x1 = 0.05	1002.5	1655.7
333.15 K, x1 = 0.0988	1004.5	1597.8
333.15 K, x1 = 0.2023	1008.5	1551.2
333.15 K, x1 = 0.3	1006.7	1531.1
333.15 K, x1 = 0.4053	1003.2	1507.7
333.15 K, x1 = 0.5003	998.8	1478.1
333.15 K, x1 = 0.5993	996.7	1466.7
333.15 K, x1 = 0.8061	990.7	1434.6
333.15 K, x1 = 1	986.7	1412.8

CCCC(=O)[O-].C[NH2+]CCO [N-methyl-2-hydroxyethylammonium butanoate] + O
Details	mass density [kg/m3]	speed of sound [m/s]
298.15 K, x1 = 0.0199	1016.9	1645.6
298.15 K, x1 = 0.0497	1035	1762.6
298.15 K, x1 = 0.1005	1040.8	1773.4
298.15 K, x1 = 0.196	1050.5	1739.5
298.15 K, x1 = 0.3008	1052.5	1732
298.15 K, x1 = 0.4005	1049.1	1693.9
298.15 K, x1 = 0.509	1046.8	1674.1
298.15 K, x1 = 0.5968	1045	1659.6
298.15 K, x1 = 0.8069	1041.3	1630.4
298.15 K, x1 = 1	1035.3	1562.9
303.15 K, x1 = 0.0199	1013.1	1646.1
303.15 K, x1 = 0.0497	1032.4	1755.1
303.15 K, x1 = 0.1005	1037.9	1763.6
303.15 K, x1 = 0.196	1047.4	1725.4
303.15 K, x1 = 0.3008	1049.4	1717
303.15 K, x1 = 0.4005	1046	1678.1
303.15 K, x1 = 0.509	1043.6	1658.3
303.15 K, x1 = 0.5968	1041.7	1643.9
303.15 K, x1 = 0.8069	1038	1614.5
303.15 K, x1 = 1	1031.9	1548
308.15 K, x1 = 0.0199	1009.2	1646.7
308.15 K, x1 = 0.0497	1029.8	1747.6
308.15 K, x1 = 0.1005	1035	1753.8
308.15 K, x1 = 0.196	1044.4	1711.3
308.15 K, x1 = 0.3008	1046.3	1701.9
308.15 K, x1 = 0.4005	1042.8	1662.3
308.15 K, x1 = 0.509	1040.4	1642.4
308.15 K, x1 = 0.5968	1038.5	1628.1
308.15 K, x1 = 0.8069	1034.7	1598.6
308.15 K, x1 = 1	1028.6	1529.7
313.15 K, x1 = 0.0199	1005.3	1647.3
313.15 K, x1 = 0.0497	1027.2	1740
313.15 K, x1 = 0.1005	1032	1744
313.15 K, x1 = 0.196	1041.3	1697.2
313.15 K, x1 = 0.3008	1043.2	1686.8
313.15 K, x1 = 0.4005	1039.6	1646.5
313.15 K, x1 = 0.509	1037.2	1626.6
313.15 K, x1 = 0.5968	1035.3	1612.4
313.15 K, x1 = 0.8069	1031.4	1582.7
313.15 K, x1 = 1	1025.2	1511.9
318.15 K, x1 = 0.0199	1001.5	1647.8
318.15 K, x1 = 0.0497	1024.6	1732.5
318.15 K, x1 = 0.1005	1029.1	1734.2
318.15 K, x1 = 0.196	1038.3	1683.1
318.15 K, x1 = 0.3008	1040.1	1671.7
318.15 K, x1 = 0.4005	1036.4	1630.6
318.15 K, x1 = 0.509	1034	1610.7
318.15 K, x1 = 0.5968	1032.1	1596.6
318.15 K, x1 = 0.8069	1028.1	1566.8
318.15 K, x1 = 1	1021.9	1499.4
323.15 K, x1 = 0.0199	997.6	1648.4
323.15 K, x1 = 0.0497	1022	1725
323.15 K, x1 = 0.1005	1026.2	1724.5
323.15 K, x1 = 0.196	1035.2	1669
323.15 K, x1 = 0.3008	1036.9	1656.6
323.15 K, x1 = 0.4005	1033.3	1614.8
323.15 K, x1 = 0.509	1030.9	1594.8
323.15 K, x1 = 0.5968	1028.9	1580.8
323.15 K, x1 = 0.8069	1024.9	1550.9
323.15 K, x1 = 1	1018.5	1481.3
328.15 K, x1 = 0.0199	993.7	1648.9
328.15 K, x1 = 0.0497	1019.4	1717.5
328.15 K, x1 = 0.1005	1023.2	1714.7
328.15 K, x1 = 0.196	1032.2	1654.9
328.15 K, x1 = 0.3008	1033.8	1641.6
328.15 K, x1 = 0.4005	1030.1	1599
328.15 K, x1 = 0.509	1027.7	1579
328.15 K, x1 = 0.5968	1025.6	1565.1
328.15 K, x1 = 0.8069	1021.6	1535
328.15 K, x1 = 1	1015.2	1467.2
333.15 K, x1 = 0.0199	989.9	1649.5
333.15 K, x1 = 0.0497	1016.8	1709.9
333.15 K, x1 = 0.1005	1020.3	1704.9
333.15 K, x1 = 0.196	1029.1	1640.8
333.15 K, x1 = 0.3008	1030.7	1626.5
333.15 K, x1 = 0.4005	1026.9	1583.1
333.15 K, x1 = 0.509	1024.5	1563.1
333.15 K, x1 = 0.5968	1022.4	1549.3
333.15 K, x1 = 0.8069	1018.3	1519.1
333.15 K, x1 = 1	1011.9	1451.2
